Reference: PubChem BioAssay (NCI)
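Cells were grown in 96-well plates and exposed to each compound for 48 hours at five concentrations; endpoints were interpolated linearly between bracketing concentrations, or set to the highest concentration if not reached. TGI marks complete inhibition of growth.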 Where a SMILES comes first, the peptide text is derived from it.

Experiments:
Assay in all cases: inhibition of tumour cell growth, NCI panel, 48 h
[1] = system: 786-0 renal
[2] = system: T-47D breast
[3] = system: BT-549 breast
[4] = system: M14 melanoma
[5] = system: UO-31 renal
[6] = system: CCRF-CEM leukemia
[7] = system: EKVX NSCLC
[8] = system: NCI/ADR-RES ovarian
[9] = system: SR leukemia
[10] = system: UACC-257 melanoma
[11] = system: HL-60(TB) leukemia
[12] = system: HCT-15 colon
[13] = system: MOLT-4 leukemia
[14] = system: OVCAR-8 ovarian
[15] = system: LOX IMVI melanoma
[16] = system: MDA-MB-231 breast
[17] = system: SK-MEL-5 melanoma
[18] = system: HCC-2998 colon
[19] = system: RXF 393 renal
[20] = system: NCI-H460 lung
[21] = system: HOP-92 NSCLC
[22] = system: IGROV1 ovarian
[23] = system: SNB-75 CNS
[24] = system: MALME-3M melanoma
[25] = system: OVCAR-3 ovarian
[26] = system: A549 NSCLC
[27] = system: CAKI-1 renal
[28] = system: OVCAR-5 ovarian
[29] = system: SW-620 colon
[30] = system: U251 CNS
[31] = system: RPMI-8226 leukemia
[32] = system: UACC-62 melanoma
[33] = system: MCF7 breast
[34] = system: SNB-19 CNS
[35] = system: NCI-H522 lung
[36] = system: NCI-H23 lung
[37] = system: SK-MEL-28 melanoma
[38] = system: SF-268 CNS
[39] = system: SN12C renal
[40] = system: KM12 colon
[41] = system: COLO 205 colon
[42] = system: SF-295 CNS
[43] = system: MDA-N
[44] = system: TK-10 renal
[45] = system: OVCAR-4 ovarian
[46] = system: ACHN renal
[47] = system: MDA-MB-435
[48] = system: PC-3 prostate
[49] = system: HT29 colon
[50] = system: DU-145 prostate
[51] = system: SF-539 CNS
[52] = system: HS 578T breast
[53] = system: K-562 leukemia
[54] = system: SK-OV-3 ovarian
[55] = system: NCI-H226 lung
[56] = system: HOP-62 NSCLC
[57] = system: SK-MEL-2 melanoma
[58] = system: HCT-116 colon

COC(=O)[C@@]12CN(C)[C@@H](C(C)(C)C)N1C(=O)OC2c1ccccc1 (some centres not stated)
TGI [1]: > 100 µM
TGI [2]: > 100 µM
TGI [3]: > 100 µM
TGI [4]: > 100 µM
TGI [5]: > 100 µM
TGI [6]: > 100 µM
TGI [7]: > 100 µM
TGI [8]: > 100 µM
TGI [9]: > 100 µM
TGI [10]: > 100 µM
TGI [11]: > 100 µM
TGI [12]: > 100 µM
TGI [13]: > 100 µM
TGI [14]: > 100 µM
TGI [15]: > 100 µM
TGI [16]: > 100 µM
TGI [17]: > 100 µM
TGI [18]: > 100 µM
TGI [19]: > 100 µM
TGI [20]: > 100 µM
TGI [21]: > 100 µM
TGI [22]: > 100 µM
TGI [23]: > 100 µM
TGI [24]: > 100 µM
TGI [25]: > 100 µM
TGI [26]: > 100 µM
TGI [27]: > 100 µM
TGI [28]: > 100 µM
TGI [29]: > 100 µM
TGI [30]: > 100 µM
TGI [31]: > 100 µM
TGI [32]: > 100 µM
TGI [33]: > 100 µM
TGI [34]: > 100 µM
TGI [35]: > 100 µM
TGI [36]: > 100 µM
TGI [37]: > 100 µM
TGI [38]: > 100 µM
TGI [39]: > 100 µM
TGI [40]: > 100 µM
TGI [41]: > 100 µM
TGI [42]: > 100 µM
TGI [43]: > 100 µM
TGI [44]: > 100 µM
TGI [45]: > 100 µM
TGI [46]: > 100 µM
TGI [47]: > 100 µM
TGI [48]: > 100 µM
TGI [49]: > 100 µM
TGI [50]: > 100 µM
TGI [51]: > 100 µM
TGI [52]: > 100 µM
TGI [53]: > 100 µM
TGI [54]: > 100 µM
TGI [55]: > 100 µM
TGI [56]: > 100 µM

CCC(C)C(NC(=O)C(NC(=O)C(CC(N)=O)NC(=O)CN)C(C)O)C(=O)NC(C(=O)NC(C)C(=O)NC(C(=O)NC(CCC(=O)O)C(=O)NC(CC(C)C)C(=O)NC(CC(=O)O)C(=O)NC(C(=O)NC(Cc1ccc(O)cc1)C(=O)N1CCCC1C(=O)O)C(C)O)C(C)C)C(C)C (configuration not stated) (H-GNTIVAVELDTYP-OH; configuration not given here)
TGI [1]: > 50 µM
TGI [2]: > 50 µM
TGI [3]: > 50 µM
TGI [4]: > 50 µM
TGI [5]: > 50 µM
TGI [6]: > 50 µM
TGI [7]: > 50 µM
TGI [8]: > 50 µM
TGI [9]: > 50 µM
TGI [10]: > 50 µM
TGI [11]: > 50 µM
TGI [12]: > 50 µM
TGI [13]: > 50 µM
TGI [57]: > 50 µM
TGI [14]: > 50 µM
TGI [15]: > 50 µM
TGI [16]: > 50 µM
TGI [17]: > 50 µM
TGI [18]: > 50 µM
TGI [19]: > 50 µM
TGI [20]: > 50 µM
TGI [21]: > 50 µM
TGI [22]: > 50 µM
TGI [23]: > 50 µM
TGI [24]: > 50 µM
TGI [25]: > 50 µM
TGI [26]: > 50 µM
TGI [27]: > 50 µM
TGI [28]: > 50 µM
TGI [29]: > 50 µM
TGI [30]: > 50 µM
TGI [31]: > 50 µM
TGI [32]: > 50 µM
TGI [33]: > 50 µM
TGI [58]: > 50 µM
TGI [34]: > 50 µM
TGI [35]: > 50 µM
TGI [36]: > 50 µM
TGI [37]: > 50 µM
TGI [38]: > 50 µM
TGI [39]: > 50 µM
TGI [40]: > 50 µM
TGI [41]: > 50 µM
TGI [42]: > 50 µM
TGI [43]: > 50 µM
TGI [44]: > 50 µM
TGI [45]: > 50 µM
TGI [46]: > 50 µM
TGI [47]: > 50 µM
TGI [48]: > 50 µM
TGI [49]: > 50 µM
TGI [50]: > 50 µM
TGI [51]: > 50 µM
TGI [52]: > 50 µM
TGI [53]: > 50 µM
TGI [54]: > 50 µM
TGI [55]: > 50 µM
TGI [56]: > 50 µM

O=C(NC(=S)Nc1ccc2c(c1)Sc1ccccc1O2)c1ccccc1
TGI [1]: 48.1 µM
TGI [2]: > 100 µM
TGI [3]: > 100 µM
TGI [4]: > 100 µM
TGI [5]: > 100 µM
TGI [6]: 95.9 µM
TGI [7]: > 100 µM
TGI [8]: > 100 µM
TGI [9]: 16.1 µM
TGI [10]: > 100 µM
TGI [11]: > 100 µM
TGI [12]: > 100 µM
TGI [13]: > 100 µM
TGI [57]: 48.8 µM
TGI [14]: > 100 µM
TGI [15]: > 100 µM
TGI [16]: 57.8 µM
TGI [17]: > 100 µM
TGI [18]: 49.2 µM
TGI [19]: 64.5 µM
TGI [20]: > 100 µM
TGI [21]: 69 µM
TGI [22]: > 100 µM
TGI [23]: 40.3 µM
TGI [24]: 93.2 µM
TGI [25]: > 100 µM
TGI [26]: > 100 µM
TGI [27]: > 100 µM
TGI [28]: > 100 µM
TGI [29]: > 100 µM
TGI [30]: 49.6 µM
TGI [31]: > 100 µM
TGI [32]: > 100 µM
TGI [33]: > 100 µM
TGI [58]: > 100 µM
TGI [34]: > 100 µM
TGI [35]: > 100 µM
TGI [36]: > 100 µM
TGI [37]: > 100 µM
TGI [38]: > 100 µM
TGI [39]: > 100 µM
TGI [40]: > 100 µM
TGI [41]: > 100 µM
TGI [42]: 79.4 µM
TGI [43]: > 100 µM
TGI [44]: 54.3 µM
TGI [45]: 92.3 µM
TGI [46]: > 100 µM
TGI [47]: > 100 µM
TGI [48]: 28.5 µM
TGI [49]: > 100 µM
TGI [50]: > 100 µM
TGI [51]: 64.6 µM
TGI [52]: > 100 µM
TGI [53]: > 100 µM
TGI [54]: > 100 µM
TGI [55]: > 100 µM
TGI [56]: > 100 µM
